Broadly, the IC50 is the concentration needed to halve the response being measured. In general, melting point refers to the temperature, or range, at which the solid turns liquid.

The text below walks through data of PMC6337588, “Multi-Target Cinnamic Acids for Oxidative Stress and Inflammation: Design, Synthesis, Biological Evaluation and Modeling Studies” (Molecules, 2018).

Data set [1] has as its target T1, soybean lipoxygenase (Glycine max, UniProt P08170).
T1 construct: purchased Sigma Chemical, Co. (St. Louis)
T1 sequence (P08170 1-839): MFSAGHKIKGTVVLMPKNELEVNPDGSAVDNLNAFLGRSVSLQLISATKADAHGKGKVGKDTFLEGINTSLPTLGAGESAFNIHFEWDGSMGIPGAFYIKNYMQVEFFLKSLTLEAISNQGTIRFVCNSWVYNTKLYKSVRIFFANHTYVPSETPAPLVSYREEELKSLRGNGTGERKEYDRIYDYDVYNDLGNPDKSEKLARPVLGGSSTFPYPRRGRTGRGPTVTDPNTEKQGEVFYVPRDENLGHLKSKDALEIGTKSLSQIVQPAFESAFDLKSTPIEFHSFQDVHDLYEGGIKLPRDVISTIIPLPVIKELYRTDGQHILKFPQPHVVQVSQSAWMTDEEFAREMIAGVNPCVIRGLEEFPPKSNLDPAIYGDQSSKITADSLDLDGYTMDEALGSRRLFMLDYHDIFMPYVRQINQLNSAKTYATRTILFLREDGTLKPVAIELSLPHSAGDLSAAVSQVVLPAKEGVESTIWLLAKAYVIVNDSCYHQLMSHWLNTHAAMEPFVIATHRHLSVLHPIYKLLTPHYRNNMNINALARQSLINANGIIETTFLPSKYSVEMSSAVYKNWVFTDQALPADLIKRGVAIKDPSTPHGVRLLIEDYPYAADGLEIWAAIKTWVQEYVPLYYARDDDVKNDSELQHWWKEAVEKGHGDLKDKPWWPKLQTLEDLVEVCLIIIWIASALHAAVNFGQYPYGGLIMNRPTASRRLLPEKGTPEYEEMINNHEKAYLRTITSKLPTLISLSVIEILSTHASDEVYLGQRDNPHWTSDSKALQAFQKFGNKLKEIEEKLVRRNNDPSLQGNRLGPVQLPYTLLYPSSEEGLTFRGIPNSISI
Put plainly: Soybean lipoxygenase inhibition in vitro. The data set is classed as biochemical. Particulars: sodium linoleate 0.1 mM, 234 nm, read-out: LOX IC50. The procedure:
Many research groups have used readily obtainable soybean lipoxygenase, which is a homologue of mammalian lipoxygenase and well studied. Due to its availability and its well-characterised crystal structure, soybean LOX was selected to be used in this study.
In vitro study was evaluated as reported previously by our group. The tested compounds were incubated at room temperature with sodium linoleate (0.1 mM) and 0.2 mL of enzyme solution (1/9 × 104 w/v in saline). The method was based to the conversion of sodium linoleate to 13-hydroperoxylinoleic acid at 234 nm. […] In order to determine the IC50 values different concentrations were used.

Data set [2] can be described thus: Non enzymatic assay of superoxide radical scavenging activity (PMS/NADH/NBT). The format is biochemical. The procedure: Superoxide radical is a main cause of oxidative stress, expressing its biological toxicity by the inactivation of iron-sulfur cluster containing enzymes. The superoxide anion radical (O2^−^•) is less toxic than the hydroxyl radical, but still being one of the most known toxic reactive oxygen species (ROS). In this assay the superoxide anion radicals were generated by a non-enzymatically assay and the compounds are tested at 100 μM final concentration (Table 2). Caffeic acid (CA) has been used as a reference compound. Compound 4ii presented the highest activity, followed by compound 3ii. We succeeded to derive a quantitative-structure activity relationship model for this activity in which the topological polar surface (TPAS) of the compounds seem to govern the superoxide anion scavenging activity:% Superoxide Anion Scavenging Activity (100 µM) = 0.019 (±0.007) TPSA + 0.813 (±0.358) n = 6, r = 0.962, r^2 = 0.926, q^2 = 0.694, s = 0.122, Q = 7.885, F1,6 = 3.701, α = 0.1 clog P vs. TPSA 0.
The superoxide radicals are generated by mixing N-methylphenazonium methyl sulfate (PMS), NADH and air–oxygen and determined by the nitroblue tetrazolium method and measured at 560 nm (Table 2). Caffeic acid was used as reference compound [17, 18, 28].

Data set [3] can be described thus: Reducing activity of the stable radical DPPH. The data set is classed as biochemical. How it is done: The substituted acids were monitored for the antioxidant activity by the use of the stable 2,2-diphenyl-1-picrylhydrazyl radical (DPPH) at concentration 50 µM and 100 µM after 20 and 60 min (Table 1). In this assay the DPPH radical is reduced by single electron transfer from the antioxidant. Strong antioxidants are the phenoxide anions from phenolic compounds like catechol and derivatives, such as nordihydroguaretic acid (NDGA), the reference compound. The compounds presented medium reducing abilities from 29–61%, due to steric reasons; small differences were found among the compounds with time and concentration. 4-Br-substituted-3 phenyl acetic acid derivatives (Series I) are equipotent to 4-OH-substituted-3 phenyl acetic acid derivatives (Series II). No differences were observed between 4i and 5i and 4ii and 5ii.
To a solution of DPPH in absolute ethanol an equal volume of the compounds dissolved in DMSO was added. The final concentrations of the measured solutions of the novel acids were 50 and 100 µM starting from a stock solution (10 mM) in DMSO. The absorbance was recorded at 517 nm, after 20 and 60 min at room temperature (Table 1).
A general note: Loss of DPPH colour is used to gauge radical scavenging.

Data set [4] can be described thus: Inhibition of linoleic acid peroxidation (AAPH). The format is biochemical. Conditions: anti-lipid peroxidation. From the text: We also used water-soluble 2,2′-[…](2-amidinopropane) hydrochloride (AAPH) for the generation of free radicals. AAPH has been extensively used as a clean and controllable source of thermally produced alkylperoxyl free radicals. The peroxyl radicals produced by the action of AAPH show total similarity to cellular activities such as lipid peroxidation. […] It seems that the presence of 3,5-di-tert-butyl-group greatly enhances protection against lipid peroxidation (6i/ii and 7i/ii followed by 3ii and 5ii). The lipid peroxidation inhibitory activity seems to be concentration dependent.
2,2’-Azobis(2-amidinopropane) dihydrochloride (AAPH) was used as a free radical initiator to start the oxidation reaction. The method was based on the production of conjugated diene hydroperoxide by oxidation of linoleic acid at 234 nm expressed as an increased absorption. Trolox was used as reference compound (93%) (Table 2).

Data set [5] in a line: ABTS+• decolorization assay. The data set is classed as biochemical. Conditions: 1 min, 734 nm. The procedure:
No role for lipophilicity was found. Oxidation of ABTS with potassium persulfate generates directly the ABTS radical cation (ABTS^+•) with no involvement of an intermediary radical, which is then reduced upon adding electron-donating antioxidants.
In order to produce the ABTS radical cation (ABTS^+•), ABTS stock solution in water (7 mM) was mixed with potassium persulfate (2.45 mM) and left in the dark at room temperature for 12–16 h before use. Our published experimental technique was used (Table 2). The results are recorded after 1 min of the mixing solutions at 734 nm. The results were compared to the appropriate standard inhibitor Trolox.

Data set [6] is described as follows: Experimental lipophilicity as RM values by reversed phase TLC (RPTLC). The data set is classed as physicochemical. Conditions: methanol/water 77/23 with 0.1% acetic acid, 24 °C, average of at least 5 measurements. From the text:
Lipophilicity is a physicochemical property correlated with the biological activity. Lipophilicity influences ligand-target binding interactions, solubility, absorption, distribution, bioavailability, metabolism and elimination (ADME) and toxicological outcomes. The lipophilicity of the novel cinnamic acids was experimentally measured as RM values using a reverse phase thin layer chromatography (RPTLC) method. This is acknowledged as a reliable, fast and convenient approach for expressing lipophilicity (Table 1). RM relates to the thermodynamic Rf value in a logarithmic form. Bate-Smith and Westall firstly determined lipophilicity as RM values in 1950 [31]. The Br-substituted derivatives 1i–7i are more lipophilic than the OH-substituted ones 1ii–7ii which can be easily explained by their structural characteristics.
Reversed phase TLC (RPTLC) was performed on silica gel plates impregnated with 55% (v/v) liquid paraffin in light petroleum ether. The mobile phase was a methanol/water mixture (77/23, v/v) containing 0.1% of acetic acid. The plates were developed in closed chromatography tanks saturated with the mobile phase at 24 °C. Spots were detected under UV light. RM values were determined from the corresponding Rf values (from five individual measurements) using the equation RM = log[(1/Rf) − 1] [17, 18, 28].

Data set [7] in a line: Competition with DMSO for hydroxyl radicals (Fe3+/ascorbic acid system). The data set is classed as biochemical. Particulars: hydroxyl radical scavenging. How it is done: Competition of the novel substituted acids with DMSO for hydroxyl radicals was measured. Hydroxyl radicals were generated using the Fe^3+/ascorbic acid system and expressed as a percentage inhibition of formaldehyde production in the presence of each compound at 100 μM (Table 2). All the synthesized derivatives strongly scavenge hydroxyl radicals at 100 μM in comparison to the reference compound Trolox.
The hydroxyl radicals generated by the Fe^3+/ascorbic acid system, were detected by the determination of formaldehyde produced from the oxidation of DMSO (Table 2). Trolox was used as reference compound [17, 18, 28].

As to `CC(=Cc1ccccc1)C=C(C(=O)O)c1ccc(O)cc1` [Compound 5ii, 2-(4-Hydroxyphenyl)-4-methyl-5-phenylpenta-2,4-dienoic acid], the melting point lay within 90 to 91 °C. Also, the half-maximal inhibitory concentration (IC50) in data set [1] worked out at 81.5 µM. Further, the “O2−•% 100 µM” value in data set [2] was determined as 8%. In data set [3], the “RA% 50 µM 20 min” value came out at 32%, the “RA% 50 µM 60 min” value is 39%, the “RA% 100 µM 20 min” value is 30% and the “RA% 100 µM 60 min” value is recorded as 41%. Also, in data set [4], the “AAPH% 50 µM” value came out at 53% and the “AAPH% 100 µM” value was 93%. Also, the “ABTS+•% 100 µM” value in data set [5] stood at 35%. For the same compound, the “RM (±SD)” value in data set [6] is −0.565 (0.003). In data set [7], the “HO•% 100 µM” value came out at 89%.
Compound `CC(C)(C)c1cc(C=C(C(=O)O)c2ccc(Br)cc2)cc(C(C)(C)C)c1O` [Compound 7i, 2-(4-Bromophenyl)-3-(3,5-di-tert-butyl-4-hydroxyphenyl)acrylic acid] yielded a melting point of 137 to 138 °C. Moreover, in data set [1], the IC50 is 72.5 µM. In addition, the “O2−•% 100 µM” value in data set [2] is 54%. Besides, in data set [3], the “RA% 50 µM 20 min” value is listed as 34%, the “RA% 50 µM 60 min” value amounted to 35%, the “RA% 100 µM 20 min” value was found to be 30% and the “RA% 100 µM 60 min” value was 31%. In data set [4], the “AAPH% 50 µM” value is 61% and the “AAPH% 100 µM” value came out at 100%. The “ABTS+•% 100 µM” value in data set [5] came out at 28%. Besides, the “RM (±SD)” value in data set [6] is recorded as 1.151 (0.021). Also, in data set [7], the “HO•% 100 µM” value was 87%.
Compound `CC(C)(C)c1cc(C=C(C(=O)O)c2ccc(O)cc2)cc(C(C)(C)C)c1O` [Compound 7ii, 3-(3,5-di-tert-Butyl-4-hydroxyphenyl)-2-(4-hydroxyphenyl)acrylic acid] yielded a melting point of 139 to 140 °C. Further, the IC50 in data set [1] is 57.5 µM. Further, in data set [2], the “O2−•% 100 µM” value stood at 69%. In addition, in data set [3], the “RA% 50 µM 20 min” value is given as 33%, the “RA% 50 µM 60 min” value is 35%, the “RA% 100 µM 20 min” value is 33% and the “RA% 100 µM 60 min” value worked out at 34%. Besides, in data set [4], the “AAPH% 50 µM” value was determined as 69% and the “AAPH% 100 µM” value is listed as 100%. Further, the “ABTS+•% 100 µM” value in data set [5] came out at 34%. For the same compound, the “RM (±SD)” value in data set [6] was 0.654 (0.016). Moreover, the “HO•% 100 µM” value in data set [7] stood at 72%.
